The text below walks through data of US6389740B1, “Lethal mosquito breeding container” (The United States of America as represented by the …, priority 1997, dated 2002).

One series deals with mosquitoes. Put plainly: Caged mortality test of egg laying structures returned after one month in the field. To be noted: paper paddles returned to the lab after one month in the field.
The conditions of series [1]: rat, 90 day period; cited from earlier work.
The conditions of series [2]: 2 year beagle; cited from earlier work.

Molecules are shown by their SMILES. Like-named read-outs stand apart in the source and are kept apart here.

Procedure for mosquitoes: A field test of a lethal breeding container according to Example 2, containing 0.87 deltramethrin on the egg laying structure, was conducted at three military housing sites in the Rio de Janeiro area of Brazil. At each housing site, six houses were selected to receive the lethal breeding containers. About 500 meters away, six houses were selected to serve as control units.
After one month in the field, the egg laying structures from the lethal container breeding containers were dried and shipped to the U.S. for testing. Four egg laying structures from outside lethal mosquito breeding containers and four egg laying structures from inside lethal mosquito breeding containers were reused in lethal. mosquito breeding containers and the mortality rate was determined.
A 1 cubic foot mosquito cage was used. The mosquitoes are given a blood meal at day 4 to 6 after post-emergence. […]
The mortality rate is determined by counting the number of deceased mosquitoes and live mosquitoes, adding these numbers together to arrive at the total number of mosquitoes exposed, and then dividing number of deceased mosquitoes by the total number of mosquitoes and multiplying that quotient by 100%. […]

Regarding `CC1(C)[C@H](C(=O)O[C@H](C#N)c2cccc(Oc3ccccc3)c2)[C@@H]1C=C(Br)Br` [deltamethrin], the “average mortality in caged tests” value with mosquitoes amounted to 80%. In addition, the NOEL in series [1] and in series [2] was 1 mg/kg/day in each case.
